This is an account of results in ChEMBL document CHEMBL3244272, “Folate antagonists. 15. 2,3-Diamino-6-(2-naphthylsulfonyl)quinazoline and related 2,4-diamino-6-[(phenyl and naphthyl)sulfinyl and sulfonyl]quinazolines, a potent new class of antimetabolites with phenomenal antimalarial activity” (J Med Chem, 1979).

Active and inactive are the calls of the source. The rule behind the calls is not given here.

Series [1] has as its system Plasmodium gallinaceum. Description: Antimalarial activity against cycloguanil-resistant Plasmodium gallinaceum infected in mouse assessed as dose required to suppress parasitemia by 90% compound treated through diet for 6 days relative to parent strain. Format: functional.
The subject of series [2] is Plasmodium falciparum. The series is described as follows: Antimalarial activity against chloroquine-sensitive, pyrimethamine-resistant Plasmodium falciparum Malayan Camp CH/Q infected in Aotus monkey assessed as dose required to >50% cures compound treated for 7 days. It counts as functional.
Series [3] has as its system Plasmodium falciparum. The series is described as follows: Antimalarial activity against chloroquine-resistant, pyrimethamine-sensitive Plasmodium falciparum Vietnam Oak Knoll in Aotus monkey assessed as dose required to >50% cures compound treated for 7 days. Format: functional.
Series [4] concerns Gallus gallus. Description: Toxicity in trophozoite-induced Plasmodium gallinaceum infected in chick assessed as death at 80 mg/kg, sc single dose measured within 48 hrs. It counts as organism-based. Particulars: chicken, in vivo. Set-up: dose 80 mg/kg, route subcutaneous.
Series [5] has as its system Plasmodium berghei. Description: Antimalarial activity against trophozoite-induced Plasmodium berghei infected in sc dosed mouse assessed as minimum curative dose. It counts as functional.
Series [6] concerns Plasmodium berghei. Description: Antimalarial activity against trophozoite-induced Plasmodium berghei infected in mouse assessed as change in mean survival time at 2.5 mg/kg, sc single dose after 72 hrs of infection. The note with it: route subcutaneous. Format: functional.
The test system of series [7] is Plasmodium berghei. Description: Antimalarial activity against trophozoite-induced Plasmodium berghei infected in mouse assessed as change in mean survival time at 1.25 mg/kg, sc single dose after 72 hrs of infection. Format: functional. The note with it: route subcutaneous.
In series [8] the test system is Plasmodium gallinaceum. The series is described as follows: Antimalarial activity against trophozoite-induced Plasmodium gallinaceum infected in chick assessed as mean survival time at 10 mg/kg, sc single dose (reference value: 4 days). The note with it: route subcutaneous. It counts as functional.
Series [9] concerns Plasmodium gallinaceum. Description: Antimalarial activity against trophozoite-induced Plasmodium gallinaceum infected in chick assessed as mean survival time at 5 mg/kg, sc single dose (reference value: 4 days). It counts as functional. Particulars: route subcutaneous.
Series [10] has as its system Plasmodium gallinaceum. Description: Antimalarial activity against trophozoite-induced Plasmodium gallinaceum infected in chick assessed as mean survival time at 2.5 mg/kg, sc single dose (reference value: 4 days). It counts as functional. Particulars: route subcutaneous.
Series [11] concerns Plasmodium gallinaceum. The series is described as follows: Antimalarial activity against trophozoite-induced Plasmodium gallinaceum infected in chick assessed as mean survival time at 1.25 mg/kg, sc single dose (reference value: 4 days). It counts as functional. Particulars: route subcutaneous.
In series [12] the test system is Plasmodium gallinaceum. The series is described as follows: Antimalarial activity against trophozoite-induced Plasmodium gallinaceum infected in chick assessed as mean survival time at 0.63 mg/kg, sc single dose (reference value: 4 days). Particulars: route subcutaneous. Format: functional.
For series [13], the system named is Plasmodium gallinaceum. The series is described as follows: Antimalarial activity against trophozoite-induced Plasmodium gallinaceum infected in chick assessed as cured at 2.5 mg/kg, sc single dose. Format: functional, organism-based. Set-up: dose 2.5 mg/kg.
Series [14] relates to Plasmodium gallinaceum. The series is described as follows: Antimalarial activity against trophozoite-induced Plasmodium gallinaceum infected in chick assessed as cured at 1.25 mg/kg, sc single dose. It counts as functional, organism-based. Set-up: dose 1.25 mg/kg.
In series [15] the test system is Plasmodium gallinaceum. Description: Antimalarial activity against trophozoite-induced Plasmodium gallinaceum infected in chick assessed as cured at 0.63 mg/kg, sc single dose. Set-up: dose 0.63 mg/kg. It counts as functional, organism-based.
In series [16] the test system is Gallus gallus. The series is described as follows: Toxicity in trophozoite-induced Plasmodium gallinaceum infected in chick assessed as death at 160 mg/kg, sc single dose measured within 48 hrs. The note with it: chicken, in vivo. Set-up: dose 160 mg/kg, route subcutaneous. Format: organism-based.
The subject of series [17] is Gallus gallus. Description: Toxicity in trophozoite-induced Plasmodium gallinaceum infected in chick assessed as death at 40 mg/kg, sc single dose measured within 48 hrs. It counts as organism-based. Set-up: dose 40 mg/kg, route subcutaneous. Particulars: chicken, in vivo.
The subject of series [18] is Gallus gallus. Description: Toxicity in trophozoite-induced Plasmodium gallinaceum infected in chick assessed as death at 20 mg/kg, sc single dose measured within 48 hrs. It counts as organism-based. Set-up: dose 20 mg/kg, route subcutaneous. The note with it: chicken, in vivo.
Series [19] relates to Gallus gallus. Description: Toxicity in trophozoite-induced Plasmodium gallinaceum infected in chick assessed as death at 10 mg/kg, sc single dose measured within 48 hrs. Particulars: chicken, in vivo. Format: organism-based. Set-up: dose 10 mg/kg, route subcutaneous.
The test system of series [20] is Gallus gallus. Description: Toxicity in trophozoite-induced Plasmodium gallinaceum infected in chick assessed as death at 5 mg/kg, sc single dose measured within 48 hrs. It counts as organism-based. Set-up: dose 5 mg/kg, route subcutaneous. Particulars: chicken, in vivo.
The subject of series [21] is Gallus gallus. The series is described as follows: Toxicity in trophozoite-induced Plasmodium gallinaceum infected in chick assessed as death at 2.5 mg/kg, sc single dose measured within 48 hrs. It counts as organism-based. Set-up: dose 2.5 mg/kg, route subcutaneous. Particulars: chicken, in vivo.
Series [22] deals with Gallus gallus. The series is described as follows: Toxicity in trophozoite-induced Plasmodium gallinaceum infected in chick assessed as death at 1.25 mg/kg, sc single dose measured within 48 hrs. Format: organism-based. Set-up: dose 1.25 mg/kg, route subcutaneous. Particulars: chicken, in vivo.
Series [23] concerns Gallus gallus. The series is described as follows: Toxicity in trophozoite-induced Plasmodium gallinaceum infected in chick assessed as death at 0.63 mg/kg, sc single dose measured within 48 hrs. Format: organism-based. Set-up: dose 0.63 mg/kg, route subcutaneous. Particulars: chicken, in vivo.
In series [24] the test system is Gallus gallus. Description: Toxicity in trophozoite-induced Plasmodium gallinaceum infected in chick assessed as death at 320 mg/kg, sc single dose measured within 48 hrs. Format: organism-based. Set-up: dose 320 mg/kg, route subcutaneous. Particulars: chicken, in vivo.

Turning to `Nc1nc(N)c2cc(Sc3ccc(Cl)cc3)ccc2n1`, the “fold change (FC)” value in the series on Plasmodium gallinaceum [1] worked out at 4. In addition, the Activity turned out to be 5 mg/kg in the series with Plasmodium falciparum [2] and 0.31 mg/kg in the series on Plasmodium falciparum [3].
With `Nc1nc(N)c2cc(S(=O)(=O)c3ccc(Cl)cc3)ccc2n1`, the Activity result in the series with Gallus gallus [4], in the series on Gallus gallus [16], in the series with Gallus gallus [17], with Gallus gallus [18], with Gallus gallus [19] and in the series with Gallus gallus [20] was “Toxic” throughout. Also, the Activity result with Gallus gallus [21], in the series on Gallus gallus [22], in the series with Gallus gallus [23] and in the series with Gallus gallus [24] was “Toxic” throughout. In the series on Plasmodium berghei [5], the MCD amounted to 40 mg/kg. In addition, the MST was found to be 12.2 days in the series on Plasmodium berghei [6]; 7.7 days in the series with Plasmodium berghei [7]; 20 days with Plasmodium gallinaceum [8]; 16 days in the series on Plasmodium gallinaceum [9]; 15 days in the series on Plasmodium gallinaceum [10]; 7.4 days with Plasmodium gallinaceum [11]. Besides, the MST with Plasmodium gallinaceum [12] was determined as 4 days. Also, the outcome in the series with Plasmodium gallinaceum [13], in the series with Plasmodium gallinaceum [14] and in the series with Plasmodium gallinaceum [15] was Active.
